# From US20250186541A1, “DLL3 TARGETING PEPTIDES AND CONSTRUCTS THEREOF” (MARIANA ONCOLOGY INC., priority 2023, published 2025)
# Numbered stars: 1 amine (or outer) side, 2 acyl side, 3 side chain; on linkers, the order of the positions; unused ones are H or OH. Bridge positions count the residues as written; N and C are the ends. Square brackets hold non-standard residues; d marks the D form. Peptide text beside a SMILES is read from it. * marks the point of attachment. Ala(piperidin-4-yl) = O=C([C@H](CC1CCN([*:3])CC1)N[*:1])[*:2]; DOTA = O=C(O)CN1CCN(CC(=O)O)CCN(CC(=O)*)CCN(CC(=O)O)CC1; Trp(7-Me) = Cc1cccc2c(C[C@H](N)C(=O)O)c[nH]c12; Phe(4-CH2NH2) = NCc1ccc(C[C@H](N)C(=O)O)cc1; Bip = N[C@@H](Cc1ccc(-c2ccccc2)cc1)C(=O)O; 1Nal = N[C@@H](Cc1cccc2ccccc12)C(=O)O; 2Nal = N[C@@H](Cc1ccc2ccccc2c1)C(=O)O; Gly(cPent) = N[C@H](C(=O)O)C1CCCC1; Hyp = O=C(O)[C@@H]1C[C@@H](O)CN1; NMeChg = CN[C@H](C(=O)O)C1CCCCC1; tBuAla = CC(C)(C)C[C@H](N)C(=O)O; dAllylGly = C=CC[C@@H](N)C(=O)O; Chg = N[C@H](C(=O)O)C1CCCCC1; Pen = CC(C)(S)[C@H](N)C(=O)O; αMeP = C[C@@]1(C(=O)O)CCCN1; αMeS = C[C@](N)(CO)C(=O)O; CH2 = C([*:1])[*:2]; Ahx = NCCCCCC(=O)O
# Molecular target: T1, human DLL3 (Homo sapiens, UniProt Q9NYJ7)
# T1 construct: biotin (biotinylated)
# T1 sequence (Q9NYJ7 27-618): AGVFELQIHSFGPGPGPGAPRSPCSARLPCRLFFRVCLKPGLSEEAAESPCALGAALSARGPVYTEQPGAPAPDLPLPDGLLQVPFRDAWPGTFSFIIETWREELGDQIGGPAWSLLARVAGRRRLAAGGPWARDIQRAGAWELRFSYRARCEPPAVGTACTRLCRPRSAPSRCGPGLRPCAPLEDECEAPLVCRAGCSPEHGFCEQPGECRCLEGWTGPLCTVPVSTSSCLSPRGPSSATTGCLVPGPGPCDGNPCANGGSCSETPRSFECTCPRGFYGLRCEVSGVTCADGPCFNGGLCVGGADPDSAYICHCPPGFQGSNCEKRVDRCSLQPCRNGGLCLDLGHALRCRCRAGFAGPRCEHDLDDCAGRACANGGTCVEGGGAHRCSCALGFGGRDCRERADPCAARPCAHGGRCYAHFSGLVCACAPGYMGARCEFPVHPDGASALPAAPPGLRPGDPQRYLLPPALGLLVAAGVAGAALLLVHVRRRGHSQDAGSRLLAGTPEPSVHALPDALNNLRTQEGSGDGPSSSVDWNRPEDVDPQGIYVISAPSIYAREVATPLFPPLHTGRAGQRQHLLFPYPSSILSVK
# Assay: Affinity determination by Surface Plasmon Resonance (SPR), Biacore, 1:1 binding model
# Conditions: biotinylated human DLL3 on streptavidin chip, 25° C.; NB = nonbinding
# Method in brief: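 SPR with biotinylated human DLL3 captured on a streptavidin chip, with a reference surface subtracted. Samples were injected at several concentrations at 100 μL/min in phosphate buffer with 137 mM NaCl, 2.7 mM KCl, 0.05% P20 and 2% DMSO. Kinetic and affinity constants came from a 1:1 binding fit.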
row,SMILES,Kd
1,"CC(C)C[C@@H]1NC(=O)[C@H](Cc2c[nH]c3ccccc23)NC(=O)[C@@H](NC(=O)[C@H](CC(=O)O)NC(=O)[C@H](CO)NC(=O)CCCCCNC(=O)CN2CCN(CC(=O)O)CCN(CC(=O)O)CCN(CC(=O)O)CC2)CSSC[C@@H](C(=O)N2CCC[C@H]2C(=O)N[C@@H](Cc2ccc(-c3ccccc3)cc2)C(=O)N[C@@H](CC(=O)O)C(N)=O)NC(=O)[C@H](CC(N)=O)NC(=O)[C@H](Cc2c[nH]c3ccccc23)NC(=O)[C@H](CCC(N)=O)NC1=O [compound 38, DOTA-Ahx-S-D-C(3)-W-L-Q-W-N-C(3)-P-(BIP)-D-CONH2] ({DOTA-Ahx}-SDCWLQWNCP[Bip]D-NH2; disulfide 3-9)",> 300 nM
2,"CC(=O)N[C@H](CO)C(=O)N[C@@H](CC(=O)O)C(=O)N[C@H]1CSSC[C@@H](C(=O)N2CCC[C@@]2(C)C(=O)N[C@@H](Cc2ccccc2)C(=O)N[C@@H](CC(=O)O)C(=O)N[C@H](CCCCNC(=O)CN2CCN(CC(=O)O)CCN(CC(=O)O)CCN(CC(=O)O)CC2)C(N)=O)NC(=O)[C@H](CC(N)=O)NC(=O)[C@H](Cc2c[nH]c3ccccc23)NC(=O)[C@H](CCC(N)=O)NC(=O)[C@H](C2CCCC2)NC(=O)[C@H](Cc2cccc3ccccc23)NC1=O [compound 141, Ac-(D-Ser)-D-C(3)-(1Nal)-(cPenG)-Q-W-N-C(3)-(aMe-P)-F-D-D-Lys(DOTA)-CONH2] (Ac-[dS]DC[1Nal][Gly(cPent)]QWNC[αMeP]FD[dK](DOTA)-NH2; disulfide 3-9)",1.18 nM
3,"CC(=O)N[C@@H](CC1CCNCC1)C(=O)N[C@@H](CO)C(=O)N[C@@H](CC(=O)O)C(=O)N[C@H]1CSSC[C@@H](C(=O)N2CCC[C@@]2(C)C(=O)N[C@@H](Cc2ccccc2)C(=O)N[C@@H](CC(=O)O)C(N)=O)NC(=O)[C@H](CC(N)=O)NC(=O)[C@H](Cc2ccc3ccccc3c2)NC(=O)[C@H](Cc2ccc(CNC(=O)CN3CCN(CC(=O)O)CCN(CC(=O)O)CCN(CC(=O)O)CC3)cc2)NC(=O)[C@H](C2CCCCC2)N(C)C(=O)[C@H](Cc2cccc3ccccc23)NC1=O [compound 181, Ac-[3-(4-piperidinyl)-Ala]-S-D-C(3)-(1Nal)-(NMe-Chg)-[PAF(DOTA)]-(2Nal)-N-C(3)-(aMe-P)-F -D-CONH2] (Ac-[Ala(piperidin-4-yl)]SDC[1Nal][NMeChg][Phe(4-CH2NH2)](DOTA)[2Nal]NC[αMeP]FD-NH2; disulfide 4-10)",> 30 nM
4,"CC(=O)N[C@H](C(=O)N[C@@H](CO)C(=O)N[C@@H](CC(=O)O)C(=O)N[C@H]1CSCSC[C@H](C(=O)N2CCC[C@@]2(C)C(=O)N[C@@H](Cc2ccccc2)C(=O)N[C@@H](CC(=O)O)C(=O)N[C@H](CCCCNC(=O)CN2CCN(CC(=O)O)CCN(CC(=O)O)CCN(CC(=O)O)CC2)C(N)=O)NC(=O)[C@H](CC(N)=O)NC(=O)[C@H](Cc2c[nH]c3ccccc23)NC(=O)[C@H](CCC(N)=O)NC(=O)[C@H](CC(C)C)NC(=O)[C@H](Cc2cccc3ccccc23)NC1=O)C1CCCCC1 [compound 122, Ac-(Chg)-S-D-C(1)-(1Nal)-L-Q-W-N-[D-Cys(1)]-(aMe-P)-F-D-D-Lys(DOTA)-CONH2] (Ac-[Chg]SDC[1Nal]LQWN[dC][αMeP]FD[dK](DOTA)-NH2; linker 4-10 via CH2)",> 30 nM
5,"CSCC[C@H](NC(C)=O)C(=O)N[C@@H](CO)C(=O)N[C@@H](CC(=O)O)C(=O)N[C@H]1CSSC[C@@H](C(=O)N2C[C@H](O)C[C@H]2C(=O)N[C@@H](Cc2ccccc2)C(=O)N[C@@H](CC(=O)O)C(=O)N[C@H](CCCCNC(=O)CN2CCN(CC(=O)O)CCN(CC(=O)O)CCN(CC(=O)O)CC2)C(N)=O)NC(=O)[C@H](CC(N)=O)NC(=O)[C@H](Cc2c[nH]c3ccccc23)NC(=O)[C@H](CCC(N)=O)NC(=O)[C@H](CC(C)C)NC(=O)[C@H](Cc2c[nH]c3ccccc23)NC1=O [compound 44, Ac-M-S-D-C(3)-W-L-Q-W-N-C(3)-(trans4OH-P)-F-D-D-Lys(DOTA)-CONH2] (Ac-MSDCWLQWNC[Hyp]FD[dK](DOTA)-NH2; disulfide 4-10)",26 nM
6,"CC(=O)N[C@H](C)C(=O)N[C@@](C)(CO)C(=O)N[C@@H](CC(=O)O)C(=O)N[C@H]1CSSC[C@@H](C(=O)N2CCC[C@@]2(C)C(=O)N[C@@H](Cc2ccccc2)C(=O)N[C@@H](CC(=O)O)C(=O)N[C@H](CCCCNC(=O)CN2CCN(CC(=O)O)CCN(CC(=O)O)CCN(CC(=O)O)CC2)C(N)=O)NC(=O)[C@H](CC(N)=O)NC(=O)[C@H](Cc2ccc3ccccc3c2)NC(=O)[C@H](CCC(N)=O)NC(=O)[C@H](CC(C)(C)C)NC(=O)[C@H](Cc2cccc3ccccc23)NC1=O [compound 167, Ac-(D-Ala)-(aMe-Ser)-D-C(3)-(1Nal)-(t-Bu-Ala)-Q-(2Nal)-N-C(3)-(aMe-P)-F-D-[D-Lys(DOTA)]-NH2] (Ac-[dA][αMeS]DC[1Nal][tBuAla]Q[2Nal]NC[αMeP]FD[dK](DOTA)-NH2; disulfide 4-10)",0.24 nM
7,"CC(=O)N[C@@H](CC1CCNCC1)C(=O)N[C@@H](CO)C(=O)N[C@@H](CC(=O)O)C(=O)N[C@@H]1C/C=C/C[C@H](C(=O)N2CCC[C@@]2(C)C(=O)N[C@@H](Cc2ccccc2)C(=O)N[C@@H](CC(=O)O)C(N)=O)NC(=O)[C@H](CC(N)=O)NC(=O)[C@H](Cc2ccc3ccccc3c2)NC(=O)[C@H](Cc2ccc(CNC(=O)CN3CCN(CC(=O)O)CCN(CC(=O)O)CCN(CC(=O)O)CC3)cc2)NC(=O)[C@H](CC(C)(C)C)NC(=O)[C@H](Cc2cccc3ccccc23)NC1=O [compound 212, Ac-[3-(4-piperidinyl)-Ala]-S-D-D-AllyG(4)-(1Nal)-(t-Bu-Ala)-[PAF(DOTA)]-(2Nal)-N-D-AllyG(4)-(aMe-P)-F-D-CONH2] (Ac-[Ala(piperidin-4-yl)]SD[dAllylGly][1Nal][tBuAla][Phe(4-CH2NH2)](DOTA)[2Nal]N[dAllylGly][αMeP]FD-NH2; staple (E) 4-10)",> 100 nM
8,"CC(=O)N[C@H](C)C(=O)N[C@@H](CO)C(=O)N[C@@](C)(CC(=O)O)C(=O)N[C@H]1CCCC[C@@H](C(=O)N2CCC[C@@]2(C)C(=O)N[C@@H](Cc2ccccc2)C(=O)N[C@@H](CC(=O)O)C(N)=O)NC(=O)[C@H](CC(N)=O)NC(=O)[C@H](Cc2ccc3ccccc3c2)NC(=O)[C@H](Cc2ccc(CNC(=O)CN3CCN(CC(=O)O)CCN(CC(=O)O)CCN(CC(=O)O)CC3)cc2)NC(=O)[C@H](CC(C)(C)C)NC(=O)[C@H](Cc2cccc3ccccc23)NC1=O [Cpd #205, Ac-(D-Ala)-S-(aMe-Asp)-AllyG(4)*-(1Nal)-(t-Bu-Ala)-[PAF(DOTA)]-(2Nal)-N-AllyG(4)*-(aMe-P)-F-D-CONH2]",0.082 nM
9,"CSCC[C@H](NC(C)=O)C(=O)N[C@@H](CO)C(=O)N[C@@H](CC(=O)O)C(=O)N[C@H]1CSSC[C@@H](C(=O)N2CCC[C@H]2C(=O)N[C@@H](Cc2ccccc2)C(=O)N[C@@H](CC(=O)O)C(N)=O)NC(=O)[C@H](CC(N)=O)NC(=O)[C@H](Cc2c[nH]c3ccccc23)NC(=O)[C@H](CCC(N)=O)NC(=O)[C@H](C)NC(=O)[C@H](Cc2c[nH]c3ccccc23)NC1=O [compound 23, Ac-M-S-D-C(3)-W-(L-Ala)-Q-W-N-C(3)-P-F-D-CONH2] (Ac-MSDCWAQWNCPFD-NH2; disulfide 4-10)",> 100 nM
10,"CC(=O)N[C@H](C)C(=O)N[C@@H](CO)C(=O)N[C@@H](CC(=O)O)C(=O)N[C@H]1CSSC[C@@H](C(=O)N2CCC[C@@]2(C)C(=O)N[C@@H](Cc2ccccc2)C(=O)N[C@@H](CC(=O)O)C(=O)N[C@H](CCCCNC(=O)CN2CCN(CC(=O)O)CCN(CC(=O)O)CCN(CC(=O)O)CC2)C(N)=O)NC(=O)[C@H](CC(N)=O)NC(=O)[C@H](Cc2ccc3ccccc3c2)NC(=O)[C@H](CCC(N)=O)NC(=O)[C@H](CC(C)(C)C)NC(=O)[C@H](Cc2c[nH]c3c(C)cccc23)NC1=O [compound 173, Ac-(D-Ala)-S-D-C(3)-(7Me-W)-(t-Bu-Ala)-Q-(2Nal)-N-C(3)-(aMe-P)-F -D-[D-Lys(DOTA)]-NH2] (Ac-[dA]SDC[Trp(7-Me)][tBuAla]Q[2Nal]NC[αMeP]FD[dK](DOTA)-NH2; disulfide 4-10)",0.48 nM
11,"CC(=O)N[C@H](C)C(=O)N[C@@H](CO)C(=O)N[C@@H](CC(=O)O)C(=O)N[C@@H]1C(=O)N[C@@H](Cc2cccc3ccccc23)C(=O)N[C@@H](CC(C)(C)C)C(=O)N[C@@H](CCC(N)=O)C(=O)N[C@@H](Cc2ccc3ccccc3c2)C(=O)N[C@@H](CC(N)=O)C(=O)N[C@H](C(=O)N2CCC[C@@]2(C)C(=O)N[C@@H](Cc2ccccc2)C(=O)N[C@@H](CC(=O)O)C(=O)N[C@H](CCCCNC(=O)CN2CCN(CC(=O)O)CCN(CC(=O)O)CCN(CC(=O)O)CC2)C(N)=O)CSSC1(C)C [compound 162, Ac-(D-Ala)-S-D-Pen(3)-(1Nal)-(t-Bu-Ala)-Q-(2Nal)-N-C(3)-(aMe-P)-F -D-D-Lys(DOTA)-CONH2] (Ac-[dA]SD[Pen][1Nal][tBuAla]Q[2Nal]NC[αMeP]FD[dK](DOTA)-NH2; disulfide 4-10)",224 nM
